{"source": "patent US4150120A", "about": "“Ophthalmic” (Takeda Chemical Industries, Ltd., priority 1977, dated 1979)", "key": {"[1]": {"test_system": "acute conjunctivitis (dogs)", "test": "Treatment of acute conjunctivitis (dogs) by ophthalmic instillation of 0.01% TRH tartrate", "format": "in vivo, dog", "source_text": "The following examples illustrate the treatment of a case of acute catarrhal conjunctivitis and a case of drug-induced acute conjunctivitis, by ophthalmic instillation of TRH alone."}, "[2]": {"test_system": "cataract (dogs)", "format": "in vivo, dog"}, "[3]": {"test_system": "progressive cataract (dogs)", "parameters": "Evaluation: key to the marks not given beside the values", "conditions": "for Relapse: diagnosed after 3 months"}, "[4]": {"test_system": "cataract (dogs)", "format": "in vivo, dog", "experimental": "2, 1977. (Treatment) Starting on Feb. 28, 1977 opthalmic instillations of a 0.01% aqueous solution of free TRH were given 3 times a day. (Treatment) Starting on Aug. […] The right eye was treated simultaneously with the aqueous solution of TRH tartrate alone.", "remark": "listed apart in the source"}, "[5]": {"conditions": "Case 3, left eye, with dexamethasone and flavine-adenine dinucleotide, August 20"}}, "note": "Counter-ions that a name gives are not always drawn. Like-named read-outs stand apart in the source and are kept apart here.", "data": [{"smiles": "NC(=O)[C@@H]1CCCN1C(=O)[C@H](Cc1cnc[nH]1)NC(=O)[C@@H]1CCC(=O)N1", "note": "[TRH tartrate, L-pyroglutamyl-L-histidyl-L-prolinamide]", "values": [{"measurement": "outcome of the case", "setting": "[1]; Case 1, acute catarrhal conjunctivitis", "value": "judged to have been cured"}, {"measurement": "findings at examination", "setting": "[1]; Case 1, acute catarrhal conjunctivitis, three instillations given every other day, 7th day after start", "value": "neither a hyperemia nor overflowing tears"}, {"measurement": "findings at examination", "setting": "[1]; Case 2, acute conjunctivitis due to irritation by insecticide, 2 instillations given every other day", "value": "the hyperemia had disappeared and the slightly dilated eye balls had become normal"}, {"measurement": "outcome of the case", "setting": "[1]; Case 2, drug-induced acute conjunctivitis", "value": "cured"}, {"measurement": "pupillary reflex", "setting": "[2]; Case 1, total cataract, 4 to 5 instillations daily from Feb. 2, on February 28", "value": "normal"}, {"measurement": "opacity of pupillary area", "setting": "[2]; Case 1, on February 28", "value": "reduced opacity"}, {"measurement": "clarity of the cortex of lens (visual examination)", "setting": "[2]; Case 1, on March 10", "value": "improved"}, {"measurement": "day on which responses were elicited (generally, seven cases)", "setting": "[3]; 0.01% aqueous solution, 3 instillations a day, eye lids pressed after instillation", "value": "third"}, {"measurement": "result of first course", "setting": "[3]; Case 1, 2 instillations daily for 3 consecutive days, then discontinued", "value": "apparently satisfactory"}, {"measurement": "outcome of the case", "setting": "[3]; Cases 1 and 2, 0.01% solution, 2 instillations daily", "value": "judged to have been cured"}, {"measurement": "Evaluation", "setting": "[3]; case 7, serious total cataract (bilateral), 3 instillations daily for 4 days plus TRH.corson injections on 1st and 3rd days", "value": "++"}, {"measurement": "Relapse", "setting": "[3]; case 7, with adjunct TRH.corson injections", "value": "None"}, {"measurement": "Evaluation", "setting": "[3]; case 9, transient central cataract due to traumatic corneitis (left eye), 2 instillations daily", "value": "+++"}, {"measurement": "Relapse", "setting": "[3]; cases 3-6 and 8", "value": "None"}, {"measurement": "reaction after each instillation (irritation to the conjunctiva)", "setting": "[3]; dog, in vivo", "value": "closed the lids for a while, followed by several blinkings"}, {"measurement": "pannus, left eye", "setting": "[4]; Case 3, left eye (immature cortical cataract and corneitis), with 0.02% dexamethasone and 0.05% flavine-adenine dinucleotide, 5 to 6 times daily, August 20", "value": "the pannus had disappeared"}, {"measurement": "ciliary congestion, left eye", "setting": "[4]; [5]", "value": "the ciliary congestion persisted"}, {"measurement": "pupillary reflex and dilation, left eye", "setting": "[4]; [5]", "value": "satisfactory"}, {"measurement": "lens clarity, right eye", "setting": "[4]; Case 3, right eye, TRH tartrate solution alone, 5 to 6 times daily, August 20", "value": "increased clarity in the upper margin of the lens"}, {"measurement": "lens clarity, both eyes", "setting": "[4]; Case 3, TRH tartrate solution alone from September 2, September 25", "value": "significantly increased clarity"}, {"measurement": "lens opacity, both eyes", "setting": "[4]; Case 3, TRH tartrate solution and dexamethasone solution twice daily, September 2", "value": "only thinned opacities all over the lens"}, {"measurement": "side effect at the times of instillation", "setting": "[4]; dog, in vivo", "value": "No side effect was noted"}]}, {"smiles": "NC(=O)[C@@H]1CCCN1C(=O)[C@H](Cc1cnc[nH]1)NC(=O)[C@@H]1CCC(=O)N1", "note": "[TRH, L-pyroglutamyl-L-histidyl-L-prolinamide]", "values": [{"measurement": "lens of right eye", "setting": "[4]; Case 2, senile cataract, 0.01% aqueous solution of free TRH 3 times a day from Feb. 28, on April 23", "value": "the lens cortex of the right eye was remarkably clear"}, {"measurement": "lens of left eye", "setting": "[4]; Case 2, 0.01% free TRH 3 times a day, on April 23", "value": "the circumstances of lens in the left eye could be delineated"}, {"measurement": "side effect during the instillation period", "setting": "[4]; dog, in vivo", "value": "No side effect was observed"}]}]}
